The values below come from patent US20240252488A1 (KOREA RESEARCH INSTITUTE OF CHEMICAL TECHNOLOGY, priority 2020, published 2024).

Assay [1] addresses T1, MLKL (Homo sapiens, UniProt Q8NB16).
T1 sequence (Q8NB16 1-471): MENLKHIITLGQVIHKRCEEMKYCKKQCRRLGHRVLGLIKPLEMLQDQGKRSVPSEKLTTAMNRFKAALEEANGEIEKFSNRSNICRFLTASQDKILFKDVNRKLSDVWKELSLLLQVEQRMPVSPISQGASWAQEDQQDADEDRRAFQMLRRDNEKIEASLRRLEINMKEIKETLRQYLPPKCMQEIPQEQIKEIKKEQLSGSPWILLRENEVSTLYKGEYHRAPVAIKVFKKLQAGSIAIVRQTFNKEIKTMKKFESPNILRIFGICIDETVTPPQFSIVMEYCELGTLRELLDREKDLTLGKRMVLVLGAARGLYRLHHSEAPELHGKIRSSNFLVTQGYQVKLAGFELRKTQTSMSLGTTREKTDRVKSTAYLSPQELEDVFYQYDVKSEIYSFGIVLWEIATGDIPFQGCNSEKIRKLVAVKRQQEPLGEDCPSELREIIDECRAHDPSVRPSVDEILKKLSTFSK
The experiment in a line: MLKL degradation assay in HepG2 cell line (western blot). The assay is classed as cell-based. The arrangement: endogenous in cells; host or cells: HepG2 or HaCaT. As to conditions: cell line not given; for Degradation assay (Degradation %) 1 μM: compound 1 μM; for Degradation assay (Degradation %) 10 μM: compound 10 μM. An outline of the steps: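 HepG2, cpd final 1 or 10 μM, 20-24 h, 37 °C/5% CO2; RIPA lysis, BCA-normalized, 10-15 μg/lane SDS-PAGE, western blot, ECL read-out.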
In general terms: A western blot detects proteins with antibodies after separation by electrophoresis.

The target in assay [2] is T1, MLKL. The experiment in a line: Measurement of binding affinity with MLKL receptor (competitive binding assay, Kd). The arrangement: made in house; host or cells: HEK 293 cell line (T7 phage in E. coli BL21-derived host is also described). The method, boiled down:
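qPCR of MLKL eluted from liganded beads served as the read-out, from which Kd was derived. The protein was made in HEK 293 cells with a DNA tag, and test compounds competed with the bead-bound ligand at 0.9% final DMSO.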

The subject of another assay is FADD−/− Jurkat cells. The experiment in a line: Necroptosis inhibition assay, TNF-α-induced necroptosis (CellTiter-Glo 2.0). As to conditions: TNF-α 15 ng/mL; for Necroptosis inhibition assay (Rescue %) 1 μM: compound 1 μM; for Necroptosis inhibition assay (Rescue %) 10 μM: compound 10 μM. The assay is classed as cell-based, human. The method, boiled down:
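Cmpd 0.1/1/10 μM final, 30 min RT preincubation; TNF-α 15 ng/mL final; 20–24 h, 37° C, 5% CO2. Readout: ATP luminescence (reagent 1:3 in PBS), 0.5 s/well. Cytotoxicity and % necroptosis inhibition calculated from signal.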
In general terms: ATP-based viability assays read luminescence as a measure of living cells.

As to `Nc1ncc(-c2cnn(C3CCN(CCOC4CCN(C(=O)CC5CCN(c6ccc7c(c6)C(=O)N(C6CCC(=O)NC6=O)C7=O)CC5)CC4)CC3)c2)nc1C(=O)O[C@@H](C(=O)Nc1ccc(F)cc1)c1ccccc1` (stereo partly drawn) [TDH-372, (R)-2-((4-fluorophenyl)amino)-2-oxo-1-phenylethyl 3-amino-6-(1-(1-(2-((1-(2-(1-(2-(2,6-dioxopiperidin-3-yl)-1,3-dioxoisoindolin-5-yl)piperidin-4-yl)acetyl)piperidin-4-yl)oxy)ethyl)piperidin-4-yl)-1H-pyrazol-4-yl)pyrazine-2-carboxylate], at MLKL [1], the “Degradation assay (Degradation %) 1 μM” value came to 78.14% and the “Degradation assay (Degradation %) 10 μM” value was determined as 81.79%. The dissociation constant Kd (usually the constant that tells how readily two partners part at equilibrium) on MLKL [2] worked out at 12 nM. In the assay on FADD−/− Jurkat cells, the “Necroptosis inhibition assay (Rescue %) 1 μM” value is reported as 26.36% and the “Necroptosis inhibition assay (Rescue %) 10 μM” value is reported as 28.54%.

For `Nc1ncc(-c2ccc(N3CCN(CC4CCN(C(=O)COc5ccc6c(c5)C(=O)N(C5CCC(=O)NC5=O)C6=O)CC4)CC3)nc2)nc1C(=O)OC(C(=O)Nc1ccc(F)cc1)c1ccccc1` (stereo not drawn) [TDH-256, 2-((4-fluorophenyl)amino)-2-oxo-1-phenylethyl 3-amino-6-(6-(4-((1-(2-((2-(2,6-dioxopiperidin-3-yl)-1,3-dioxoisoindolin-5-yl)oxy)acetyl)piperidin-4-yl)methyl)piperazin-1-yl)pyridin-3-yl)pyrazine-2-carboxylate], at MLKL [1], the “Degradation assay (Degradation %) 1 μM” value was determined as 36.84% and the “Degradation assay (Degradation %) 10 μM” value is 24.99%. Also, the Kd on MLKL [2] amounted to 78 nM. In the assay on FADD−/− Jurkat cells, the “Necroptosis inhibition assay (Rescue %) 1 μM” value amounted to 45.87% and the “Necroptosis inhibition assay (Rescue %) 10 μM” value is 44.55%.

Regarding `Nc1ncc(-c2cnn(C3CCN(CCOC4CCN(C(=O)c5ccc6c(c5)CN(C5CCC(=O)NC5=O)C6=O)CC4)CC3)c2)nc1C(=O)O[C@@H](C(=O)Nc1ccc(F)cc1)c1ccccc1` (stereo partly drawn) [TDH-549, (R)-2-((4-fluorophenyl)amino)-2-oxo-1-phenylethyl 3-amino-6-(1-(1-(2-((1-(2-(2,6-dioxopiperidin-3-yl)-1-oxoisoindoline-5-carbonyl)piperidin-4-yl)oxy)ethyl)piperidin-4-yl)-1H-pyrazol-4-yl)pyrazine-2-carboxylate], on MLKL [1], the “Degradation assay (Degradation %) 1 μM” value is 84.54% and the “Degradation assay (Degradation %) 10 μM” value came to 34.92%. For the same compound, the affinity at MLKL [2], expressed as Kd, was 0.64 nM. Also, in the assay with FADD−/− Jurkat cells (FADD−/− Jurkat cells), the “Necroptosis inhibition assay (Rescue %) 1 μM” value is 35.84% and the “Necroptosis inhibition assay (Rescue %) 10 μM” value was found to be 25.21%.

In the case of `Nc1ncc(-c2cnn(C3CCN(CCOC4CCN(C(=O)Cc5cccc(NC6=CC(=O)N(C7CCC(=O)NC7=O)C6=O)c5)CC4)CC3)c2)nc1C(=O)O[C@@H](C(=O)Nc1ccc(F)cc1)c1ccccc1` (stereo partly drawn) [TDH-496, (R)-2-((4-fluorophenyl)amino)-2-oxo-1-phenylethyl 3-amino-6-(1-(1-(2-((1-(2-(3-((1-(2,6-dioxopiperidin-3-yl)-2,5-dioxo-2,5-dihydro-1H-pyrrol-3-yl)amino)phenyl)acetyl)piperidin-4-yl)oxy)ethyl)piperidin-4-yl)-1H-pyrazol-4-yl)pyrazine-2-carboxylate], on MLKL [1], the “Degradation assay (Degradation %) 1 μM” value came to 87.42% and the “Degradation assay (Degradation %) 10 μM” value came out at 81.07%. On MLKL [2], this compound showed a Kd of 2.2 nM. Further, in the assay on FADD−/− Jurkat cells (FADD−/− Jurkat cells), the “Necroptosis inhibition assay (Rescue %) 1 μM” value was determined as 27.23% and the “Necroptosis inhibition assay (Rescue %) 10 μM” value is on record as 7.85%.

With `COc1ccc(C(=O)N2CCC(C(=O)N3CCC(CCN4CCC(n5cc(-c6cnc(N)c(C(=O)O[C@@H](C(=O)Nc7ccc(F)cc7)c7ccccc7)n6)cn5)CC4)CC3)CC2)cc1N1CCC(=O)NC1=O` [TDH-517, (R)-2-((4-fluorophenyl)amino)-2-oxo-1-phenylethyl 3-amino-6-(1-(1-(2-(1-(1-(3-(2,4-dioxotetrahydropyrimidin-1(2H)-yl)-4-methoxybenzoyl)piperidine-4-carbonyl)piperidin-4-yl)ethyl)piperidin-4-yl)-1H-pyrazol-4-yl)pyrazine-2-carboxylate], on MLKL [1], the “Degradation assay (Degradation %) 1 μM” value turned out to be 93.97% and the “Degradation assay (Degradation %) 10 μM” value is 86.64%. The Kd at MLKL [2] is 0.62 nM. Further, in the assay with FADD−/− Jurkat cells (FADD−/− Jurkat cells), the “Necroptosis inhibition assay (Rescue %) 1 μM” value is on record as 58.11% and the “Necroptosis inhibition assay (Rescue %) 10 μM” value came to 10.78%.

For the compound `Nc1ncc(-c2cnn(C3CCN(CCC4CCN(C(=O)CNc5ccc6c(c5)C(=O)N(C5CCC(=O)NC5=O)C6=O)CC4)CC3)c2)nc1C(=O)O[C@@H](C(=O)Nc1ccc(F)cc1)c1ccccc1` (stereo partly drawn) [TDH-199, (R)-2-((4-fluorophenyl)amino)-2-oxo-1-phenylethyl 3-amino-6-(1-(1-(2-(1-((2-(2,6-dioxopiperidin-3-yl)-1,3-dioxoisoindolin-5-yl)glycyl)piperidin-4-yl)ethyl)piperidin-4-yl)-1H-pyrazol-4-yl)pyrazine-2-carboxylate], at MLKL [1], the “Degradation assay (Degradation %) 1 μM” value was determined as 61.77% and the “Degradation assay (Degradation %) 10 μM” value is 38.35%. Further, at MLKL [2], binding was characterised by a dissociation constant (Kd) of 1.7 nM. Also, in the assay on FADD−/− Jurkat cells, the “Necroptosis inhibition assay (Rescue %) 1 μM” value worked out at 36.93% and the “Necroptosis inhibition assay (Rescue %) 10 μM” value is 18%.

For `Nc1ncc(-c2cnn(C3CCN(C(=O)C4CCN(C(=O)CNc5ccc6c(c5)C(=O)N(C5CCC(=O)NC5=O)C6=O)CC4)CC3)c2)nc1C(=O)O[C@@H](C(=O)Nc1ccc(F)cc1)c1ccccc1` (stereo partly drawn) [TDH-353, (R)-2-((4-fluorophenyl)amino)-2-oxo-1-phenylethyl 3-amino-6-(1-(1-(1-((2-(2,6-dioxopiperidin-3-yl)-1,3-dioxoisoindolin-5-yl)glycyl)piperidine-4-carbonyl)piperidin-4-yl)-1H-pyrazol-4-yl)pyrazine-2-carboxylate], on MLKL [1], the “Degradation assay (Degradation %) 1 μM” value is 75.35% and the “Degradation assay (Degradation %) 10 μM” value stood at 86.12%. In addition, the affinity at MLKL [2], expressed as Kd, was 26 nM. Further, in the assay with FADD−/− Jurkat cells (compound 1.1 µM), the “Necroptosis inhibition assay (Rescue %) 1.1 μM” value is listed as 55.34 (1.1µM) %. The “Necroptosis inhibition assay (Rescue %) 10 μM” value with FADD−/− Jurkat cells is on record as 49.23%.

On to `Nc1ncc(-c2cnn(C3CCN(C(=O)CCC4CCN(C(=O)CNc5ccc6nnn(C7CCC(=O)NC7=O)c(=O)c6c5)CC4)CC3)c2)nc1C(=O)O[C@@H](C(=O)Nc1ccc(F)cc1)c1ccccc1` (stereo partly drawn) [TDH-434, (R)-2-((4-fluorophenyl)amino)-2-oxo-1-phenylethyl 3-amino-6-(1-(1-(3-(1-((3-(2,6-dioxopiperidin-3-yl)-4-oxo-3,4-dihydrobenzo[d][1,2,3]triazin-6-yl)glycyl)piperidin-4-yl)propanoyl)piperidin-4-yl)-1H-pyrazol-4-yl)pyrazine-2-carboxylate], for which, at MLKL [1], the “Degradation assay (Degradation %) 1 μM” value was 85.08% and the “Degradation assay (Degradation %) 10 μM” value is 74.66%. Binding at MLKL [2] was characterised by a dissociation constant (Kd) of 1.4 nM. Moreover, in the assay on FADD−/− Jurkat cells (FADD−/− Jurkat cells), the “Necroptosis inhibition assay (Rescue %) 1 μM” value was 28.72% and the “Necroptosis inhibition assay (Rescue %) 10 μM” value was determined as 20.87%.

Consider `Nc1ncc(-c2cnn(C3CCN(CCCN4CCN(C(=O)COc5ccc6c(c5)C(=O)N(C5CCC(=O)NC5=O)C6=O)CC4)CC3)c2)nc1C(=O)OC(C(=O)Nc1ccc(F)cc1)c1ccccc1` (stereo not drawn) [TDH-244, 2-((4-fluorophenyl)amino)-2-oxo-1-phenylethyl 3-amino-6-(1-(1-(3-(4-(2-((2-(2,6-dioxopiperidin-3-yl)-1,3-dioxoisoindolin-5-yl)oxy)acetyl)piperazin-1-yl)propyl)piperidin-4-yl)-1H-pyrazol-4-yl)pyrazine-2-carboxylate], for which, on MLKL [1], the “Degradation assay (Degradation %) 1 μM” value is listed as 75.95% and the “Degradation assay (Degradation %) 10 μM” value was 66.16%. For the same compound, the Kd on MLKL [2] amounted to 1.3 nM. Also, in the assay with FADD−/− Jurkat cells, the “Necroptosis inhibition assay (Rescue %) 1 μM” value was 92.11% and the “Necroptosis inhibition assay (Rescue %) 10 μM” value is 65.67%.
